The results in this text go back to ChEMBL document CHEMBL4406853 (Eur J Med Chem, 2019).

For experiment [1], the target named is T1, Mu-type opioid receptor (Cavia porcellus, UniProt P97266). Description: Inhibition of mu opioid receptor in guinea pig brain membranes. Format: cell membranes.
Experiment [2] is described as follows: Inhibition of delta opioid receptor in guinea pig brain membranes. Format: cell membranes, Cavia porcellus.
Experiment [3] addresses T2, Kappa-type opioid receptor (Cavia porcellus, UniProt P41144). Description: Inhibition of kappa opioid receptor in guinea pig brain membranes. The experiment is classed as cell membranes.
Experiment [4] concerns the target T1, Mu-type opioid receptor. Description: Agonist activity at mu opioid receptor in guinea pig brain membranes by [35S]-GTPgammaS binding assay. The experiment is classed as functional, cell membranes. (In general: GTPγS resists hydrolysis and so accumulates on activated G proteins.)
A short description of experiment [5]: Agonist activity at delta opioid receptor in guinea pig brain membranes by [35S]-GTPgammaS binding assay. The experiment is classed as cell membranes, Cavia porcellus.
Experiment [6] has as its target T2, Kappa-type opioid receptor. The experiment in a line: Agonist activity at kappa opioid receptor in guinea pig brain membranes by [35S]-GTPgammaS binding assay. Format: functional, cell membranes.
Experiment [7] addresses Mu-type opioid receptor (Cavia porcellus) (UniProt P97266). The experiment in a line: Agonist activity at mu opioid receptor in guinea pig brain membranes by [35S]-GTPgammaS binding assay relative to control. Format: functional, cell membranes.
The species named for another experiment is Cavia porcellus. Description: Agonist activity at delta opioid receptor in guinea pig brain membranes by [35S]-GTPgammaS binding assay relative to control. The experiment is classed as cell membranes.
Experiment [8] deals with Kappa-type opioid receptor (Cavia porcellus) (UniProt P41144). Description: Agonist activity at kappa opioid receptor in guinea pig brain membranes by [35S]-GTPgammaS binding assay relative to control. The experiment is classed as functional, cell membranes.
In experiment [9] the target is T3, Mu-type opioid receptor (Homo sapiens, UniProt P35372). Description: Displacement of [3H]DAMGO from mu opioid receptor (unknown origin) expressed in HEK293 cells after 1 hr by liquid scintillation counting. The experiment is classed as cell-based.
The subject of experiment [10] is Mus musculus. Description: Antinociceptive activity in icv dosed Kunming mouse. The experiment is classed as functional. Conditions: central.
Experiment [11] concerns Mus musculus. The experiment in a line: Antinociceptive activity in iv dosed Kunming mouse. The experiment is classed as functional.
The subject of experiment [12] is Mus musculus. Description: Antinociceptive activity in icv dosed mouse. The experiment is classed as functional.
Experiment [13] concerns the target T4, Delta-type opioid receptor (Homo sapiens, UniProt P41143). Description: Inhibition of delta opioid receptor (unknown origin) by radioligand binding assay.
The target of experiment [14] is T4, Delta-type opioid receptor. Description: Inhibition of delta opioid receptor (unknown origin) by MVD assay.
Experiment [15] has as its target T3, Mu-type opioid receptor. Description: Inhibition of mu opioid receptor (unknown origin).
Experiment [16] is filed under the species Homo sapiens. Description: Selectivity ratio of IC50 for mu opioid receptor (unknown origin) to IC50 for delta opioid receptor (unknown origin) by radioligand binding assay.
The species named for experiment [17] is Homo sapiens. The experiment in a line: Selectivity ratio of IC50 for mu opioid receptor (unknown origin) to IC50 for delta opioid receptor (unknown origin) by MVD assay.
The target in experiment [18] is T4, Delta-type opioid receptor. The experiment in a line: Inhibition of full length delta opioid receptor (unknown origin) assessed as inhibition of forskolin-stimulated intracellular cAMP accumulation. Format: functional, cell-based. (Cyclic AMP is a second messenger, typically raised through Gs and lowered through Gi signalling.)
For experiment [19], the target named is T4, Delta-type opioid receptor. The experiment in a line: Inhibition of full length delta opioid receptor (unknown origin) assessed as increase in beta arrestin 1 recruitment.
The target of experiment [20] is T4, Delta-type opioid receptor. Description: Inhibition of full length delta opioid receptor (unknown origin) assessed as increase in beta arrestin 2 recruitment. In general terms: Recruitment of arrestin is a read-out of receptor activation apart from second messengers.
The target of experiment [21] is T5, Kappa-type opioid receptor (Homo sapiens, UniProt P41145). The experiment in a line: Inhibition of kappa opioid receptor (unknown origin) by [35S]-GTPgammaS binding assay. Format: functional.
Experiment [22] deals with T3, Mu-type opioid receptor. Description: Inhibition of mu opioid receptor (unknown origin) in presence of DAMGO by [35S]-GTPgammaS binding assay. Format: functional.
The target of experiment [23] is T4, Delta-type opioid receptor. The experiment in a line: Inhibition of delta opioid receptor (unknown origin) in presence of DAMGO by [35S]-GTPgammaS binding assay. Format: functional.
For experiment [24], the target named is T3, Mu-type opioid receptor. Description: Inhibition of mu opioid receptor (unknown origin) in presence of DPDPE by [35S]-GTPgammaS binding assay. Format: functional.
In experiment [25] the target is T4, Delta-type opioid receptor. Description: Inhibition of delta opioid receptor (unknown origin) in presence of DPDPE by [35S]-GTPgammaS binding assay. Format: functional.
The target of experiment [26] is T5, Kappa-type opioid receptor. Description: Inhibition of kappa opioid receptor (unknown origin) in presence of DAMGO by [35S]-GTPgammaS binding assay. Format: functional.
In experiment [27] the target is T5, Kappa-type opioid receptor. The experiment in a line: Inhibition of kappa opioid receptor (unknown origin) in presence of DPDPE by [35S]-GTPgammaS binding assay. The experiment is classed as functional.
Experiment [28] deals with T4, Delta-type opioid receptor. The experiment in a line: Inhibition of delta opioid receptor (unknown origin) in presence of DAMGO by [35S]-GTPgammaS binding assay relative to control. The experiment is classed as functional.
Experiment [29] has as its target T3, Mu-type opioid receptor. The experiment in a line: Inhibition of mu opioid receptor (unknown origin) in presence of DPDPE by [35S]-GTPgammaS binding assay relative to control. Format: functional.
Experiment [30] has as its target T4, Delta-type opioid receptor. The experiment in a line: Inhibition of delta opioid receptor (unknown origin) in presence of DPDPE by [35S]-GTPgammaS binding assay relative to control. The experiment is classed as functional.
Experiment [31] deals with T5, Kappa-type opioid receptor. The experiment in a line: Inhibition of kappa opioid receptor (unknown origin) in presence of DAMGO by [35S]-GTPgammaS binding assay relative to control. Format: functional.
In experiment [32] the target is T5, Kappa-type opioid receptor. Description: Inhibition of kappa opioid receptor (unknown origin) in presence of DPDPE by [35S]-GTPgammaS binding assay relative to control. The experiment is classed as functional.
In experiment [33] the target is T3, Mu-type opioid receptor. Description: Inhibition of mu-opioid receptor (unknown origin) by [35S]-GTPgammaS binding assay. Format: functional.
In experiment [34] the target is T5, Kappa-type opioid receptor. Description: Inhibition of kappa-opioid receptor (unknown origin) by [35S]-GTPgammaS binding assay. Format: functional.
Experiment [35] concerns the target T3, Mu-type opioid receptor. The experiment in a line: Inhibition of mu opioid receptor (unknown origin) expressed in human […] cells by [35S]-GTPgammaS binding assay. Format: functional, cell-based.
Experiment [36] has as its target T3, Mu-type opioid receptor. The experiment in a line: Inhibition of mu opioid receptor (unknown origin) expressed in human […] cells by [35S]-GTPgammaS binding assay relative to control. Format: functional, cell-based.
The target in experiment [37] is T4, Delta-type opioid receptor. The experiment in a line: Inhibition of delta opioid receptor (unknown origin) expressed in human […] cells by [35S]-GTPgammaS binding assay. The experiment is classed as functional, cell-based.
Experiment [38] concerns the target T4, Delta-type opioid receptor. The experiment in a line: Inhibition of delta opioid receptor (unknown origin) expressed in human […] cells by [35S]-GTPgammaS binding assay relative to control. Format: functional, cell-based.
Experiment [39] deals with T3, Mu-type opioid receptor. Description: Inhibition of mu opioid receptor (unknown origin) expressed in human […] cells assessed as increase in beta arrestin recruitment. The experiment is classed as functional, cell-based.
Experiment [40] concerns the target T4, Delta-type opioid receptor. Description: Inhibition of delta opioid receptor (unknown origin) expressed in human […] cells assessed as increase in beta arrestin recruitment. Format: functional, cell-based.
Experiment [41] addresses T3, Mu-type opioid receptor. The experiment in a line: Inhibition of mu opioid receptor (unknown origin) assessed as increase in beta arrestin recruitment relative to control. Format: functional.
Experiment [42] concerns the target T4, Delta-type opioid receptor. The experiment in a line: Inhibition of delta opioid receptor (unknown origin) assessed as increase in beta arrestin recruitment relative to control. The experiment is classed as functional.

Non-standard residues stand in square brackets, D forms with d. Residues, ends and D or L forms follow the SMILES beside them. ξ: configuration not given here. ξP = O=C(O)C1CCCN1

The Ki is a measure of affinity in units of concentration, obtained from inhibition or displacement. Usually EC50 stands for the concentration at which the effect is half-maximal. The term Emax denotes the greatest response seen or fitted, relative to the assay's reference. Usually IC50 stands for the point on the concentration scale where inhibition reaches its midpoint.

T3 sequence (P35372 whole entry): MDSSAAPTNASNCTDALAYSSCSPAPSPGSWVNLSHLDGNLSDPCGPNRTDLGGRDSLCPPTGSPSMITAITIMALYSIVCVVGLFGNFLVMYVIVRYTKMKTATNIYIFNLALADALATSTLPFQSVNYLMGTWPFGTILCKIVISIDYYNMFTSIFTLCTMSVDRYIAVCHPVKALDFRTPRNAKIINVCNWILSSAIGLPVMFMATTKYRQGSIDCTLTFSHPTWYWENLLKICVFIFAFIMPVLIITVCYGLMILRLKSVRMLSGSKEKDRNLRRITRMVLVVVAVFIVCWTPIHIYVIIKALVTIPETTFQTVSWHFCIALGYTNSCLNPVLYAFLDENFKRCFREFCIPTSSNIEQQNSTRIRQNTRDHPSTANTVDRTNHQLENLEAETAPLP
T4 sequence (P41143 whole entry): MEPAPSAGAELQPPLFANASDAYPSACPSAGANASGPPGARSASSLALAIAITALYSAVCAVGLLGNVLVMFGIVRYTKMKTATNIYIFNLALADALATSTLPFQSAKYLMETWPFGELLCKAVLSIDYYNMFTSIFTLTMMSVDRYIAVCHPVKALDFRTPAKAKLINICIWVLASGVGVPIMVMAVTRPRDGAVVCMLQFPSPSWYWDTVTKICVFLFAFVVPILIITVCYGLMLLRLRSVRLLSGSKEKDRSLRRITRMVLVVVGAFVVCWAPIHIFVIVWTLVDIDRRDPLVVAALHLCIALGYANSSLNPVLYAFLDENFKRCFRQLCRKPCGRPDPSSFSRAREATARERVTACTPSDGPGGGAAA
T5 sequence (P41145 whole entry): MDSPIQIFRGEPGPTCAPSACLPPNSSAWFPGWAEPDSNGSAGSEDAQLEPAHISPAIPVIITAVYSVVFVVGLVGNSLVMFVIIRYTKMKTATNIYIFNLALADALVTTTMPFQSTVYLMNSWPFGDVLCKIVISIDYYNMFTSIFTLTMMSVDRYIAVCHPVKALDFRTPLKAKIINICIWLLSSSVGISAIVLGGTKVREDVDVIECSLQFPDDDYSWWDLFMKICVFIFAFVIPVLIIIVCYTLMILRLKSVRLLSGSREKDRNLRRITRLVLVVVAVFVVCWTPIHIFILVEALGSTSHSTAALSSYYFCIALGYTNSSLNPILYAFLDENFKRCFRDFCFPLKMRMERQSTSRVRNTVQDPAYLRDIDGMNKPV
T1 sequence (P97266 whole entry): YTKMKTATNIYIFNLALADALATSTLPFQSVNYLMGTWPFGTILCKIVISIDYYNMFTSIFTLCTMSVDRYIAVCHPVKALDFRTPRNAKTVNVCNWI
T2 sequence (P41144 whole entry): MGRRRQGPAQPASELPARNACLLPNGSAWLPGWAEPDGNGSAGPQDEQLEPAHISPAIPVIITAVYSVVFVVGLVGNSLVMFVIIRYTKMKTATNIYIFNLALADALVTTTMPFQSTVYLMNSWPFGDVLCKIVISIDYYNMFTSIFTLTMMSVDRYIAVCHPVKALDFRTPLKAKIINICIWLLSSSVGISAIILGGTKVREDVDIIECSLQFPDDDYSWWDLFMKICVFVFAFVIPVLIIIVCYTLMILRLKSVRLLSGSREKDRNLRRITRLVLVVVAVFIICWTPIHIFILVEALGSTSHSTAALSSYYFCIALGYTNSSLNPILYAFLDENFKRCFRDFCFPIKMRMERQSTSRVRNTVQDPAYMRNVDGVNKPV
Chain of Mu-type opioid receptor (Cavia porcellus) (P97266 whole entry): as the sequence (P97266 whole entry) above
Chain of Kappa-type opioid receptor (Cavia porcellus) (P41144 whole entry): as the sequence (P41144 whole entry) above

`CC[C@@H]1CN2CCc3c([nH]c4cccc(OC)c34)[C@@H]2C[C@@H]1/C(=C\OC)C(=O)OC`: the Ki came out at 0.013 µM on Mu-type opioid receptor [1], 0.155 µM in experiment [2] and 0.123 µM in experiment [3]. Moreover, the EC50 (at Mu-type opioid receptor [4]; in [5]; in experiment [6]) was 0.23 µM throughout. Moreover, the Emax (in experiment [7]; in the experiment listed under Cavia porcellus; in experiment [8]) was 65% throughout.

Turning to `C=C(C(N)=O)C(NC(=O)[C@H](Cc1c[nH]c2ccccc12)NC(=O)[C@@H](C)N(C)C(=O)C(N)Cc1c(C)cc(O)cc1C)c1ccccc1` (stereo partly drawn), at Mu-type opioid receptor [9], the EC50 is 1.77 to 5.15 pM and the Ki lay within 0.0109 to 0.0511 nM.

In turn, `C=C(C(N)=O)C(NC(=O)[C@H](Cc1c[nH]c2ccccc12)NC(=O)[C@@H](C)N(C)C(=O)[C@@H](N)Cc1ccc(O)cc1)c1ccco1` (stereo partly drawn) returned an EC50 at Mu-type opioid receptor [9] of 1450 to 39000 pM.

`C=C(C(N)=O)C(NC(=O)[C@H](Cc1ccccc1)NC(=O)[C@@H](C)N(C)C(=O)C(N)Cc1c(C)cc(O)cc1C)c1ccco1` (stereo partly drawn) returned an EC50 on Mu-type opioid receptor [9] of 1.77 to 5.15 pM. In addition, the Ki on Mu-type opioid receptor [9] is 0.0109 to 0.0511 nM. The ED50 with Mus musculus [10] came out at 0.0226 µmol/kg; in the experiment on Mus musculus [11] it was 0.000489 µmol/kg.

On Mu-type opioid receptor [9], `C=C(C(N)=O)C(NC(=O)[C@H](Cc1c[nH]c2ccccc12)NC(=O)[C@@H](C)N(C)C(=O)C(N)Cc1c(C)cc(O)cc1C)c1ccco1` (stereo partly drawn) returned an EC50 of 1.77 to 5.15 pM and a Ki of 0.0109 to 0.0511 nM. The compound also came in with an ED50 in the experiment with Mus musculus [10] of 0.0152 µmol/kg. In the experiment with Mus musculus [11], this compound had an ED50 of 0.000382 µmol/kg.

As for `Oc1cccc(CCN(CCc2ccccc2)CC2CCC2)c1`, the ED50 with Mus musculus [12] is 3.74 nmol.

On to `CC(C)C[C@H](NC(=O)[C@H](CC(=O)O)NC(=O)[C@H](CC(C)C)NC(=O)C1CCCN1C(=O)[C@@H](N)Cc1ccc(O)cc1)C(=O)O` (stereo partly drawn) (H-Y[ξP]LDL-OH), for which the IC50 in experiment [13] was 2 µM; in experiment [14], 51 µM; against Mu-type opioid receptor [15], 1090 µM; in experiment [18], 6.31 µM. Besides, the Ratio IC50 in the experiment listed under Homo sapiens [16] and in the experiment filed under Homo sapiens [17] was 500 each time. Besides, the EC50 in experiment [19] and in experiment [20] was 79.4 µM each time.

For the compound `Oc1cccc(CCN(CCc2ccccc2)CC2CC2)c1`, the midpoint of the response in experiment [21], the EC50, lay at 0.0367 µM. The compound further registered an ED50 in the experiment on Mus musculus [12] of 6.02 nmol.

`CC[C@@H]1CN2CC[C@]3(Nc4cccc(-c5ccccc5)c4C3=O)[C@@H]2C[C@@H]1/C(=C\OC)C(=O)OC`: the EC50 (on Mu-type opioid receptor [22]; in experiment [23]; at Mu-type opioid receptor [24]; in experiment [25]; in experiment [26]; in [27]) was 0.0014 µM each time. Besides, the Emax (in experiment [28]; on Mu-type opioid receptor [29]; in experiment [30]; in experiment [31]; in experiment [32]) was 123% each time.

In the case of `CCC1(C)CC(CCNCc2ccccc2O)(c2ccccc2OC)CCO1` (stereo not drawn), the EC50 is 1.1 µM on Mu-type opioid receptor [33] and 3.4 µM in experiment [34].

Consider `C=C(C(N)=O)C(NC(=O)[C@H](Cc1ccccc1)NC(=O)[C@@H](C)N(C)C(=O)[C@@H](N)Cc1ccc(O)cc1)c1ccccc1` (stereo partly drawn), for which, on Mu-type opioid receptor [9], the EC50 stood at 4000 pM.

As to `CCOC(=O)C1(CCc2ccccc2)CCN(Cc2ccc(NC(C)=O)cc2)CC1`, the EC50 on Mu-type opioid receptor [35] was 0.054 µM; in [37], 0.054 µM; on Mu-type opioid receptor [39], 8.3 µM; in experiment [40] it was 8.3 µM. Further, the maximal response (Emax) on Mu-type opioid receptor [36] is 168%; in experiment [38] it was 168%; at Mu-type opioid receptor [41], 1200%; in [42] it was 1200%.
